In the NIST ThermoML archive (doi:10.1016/j.jct.2015.02.011):

Experiments:
[1] = 100.7 kPa, Liquid; for speed of sound: Frequency=3 MHz, Sing-around technique in a fixed-path interferometer; for mass density: Vibrating tube method
[2] = refractive index (Na D-line) (dimensionless); conditions: 100.7 kPa, Liquid, Standard Abbe refractometry
[3] = refractive index (Na D-line) (dimensionless); xn = mol fraction of the nth substance listed; conditions: 100.7 kPa, Liquid, Standard Abbe refractometry, x2 = 0
[4] = xn = mol fraction of the nth substance listed; conditions: 100.7 kPa, Liquid, x2 = 0; for speed of sound: Frequency=3 MHz, Sing-around technique in a fixed-path interferometer; for mass density: Vibrating tube method

CCCCn1cc[n+](C)c1.F[P-](F)(F)(F)(F)F [1-butyl-3-methylimidazolium hexafluorophosphate]
Conditions | mass density, [1] [kg/m3] | refractive index, [2] | speed of sound, [1] [m/s]
293.15 K | 1370.41 | 1.41068 | 1454.6
298.15 K | 1366.26 | 1.40943 | 1442.3
303.15 K | 1362.13 | 1.40818 | 1430.2
308.15 K | 1357.86 | 1.40693 | 1418.4
313.15 K | 1353.88 | 1.40567 | 1406.7
318.15 K | 1349.88 | 1.40443 | 1395.2
323.15 K | 1345.57 | 1.40312 | 1384.1

CCCCCCn1cc[n+](C)c1.F[P-](F)(F)(F)(F)F [1-hexyl-3-methylimidazolium hexafluorophosphate]
Conditions | mass density, [1] [kg/m3] | refractive index, [2] | speed of sound, [1] [m/s]
293.15 K | 1296.72 | 1.41958 | 1437.7
298.15 K | 1292.62 | 1.41832 | 1424.3
303.15 K | 1288.61 | 1.41692 | 1411.5
308.15 K | 1284.72 | 1.41564 | 1399
313.15 K | 1280.82 | 1.41422 | 1386.9
318.15 K | 1276.37 | 1.41306 | 1375
323.15 K | 1272.45 | 1.41175 | 1363.3

CCCCCCCC[n+]1ccn(C)c1.F[P-](F)(F)(F)(F)F [1-octyl-3-methylimidazolium hexafluorophosphate]
Conditions | mass density, [1] [kg/m3] | refractive index, [2] | speed of sound, [1] [m/s]
293.15 K | 1238.77 | 1.42441 | 1421.2
298.15 K | 1234.79 | 1.42312 | 1406.5
303.15 K | 1230.84 | 1.42171 | 1392.4
308.15 K | 1227.09 | 1.42029 | 1379
313.15 K | 1223.3 | 1.41888 | 1365.8
318.15 K | 1219.5 | 1.4175 | 1351.2
323.15 K | 1215.42 | 1.41601 | 1338

C1CCOC1 [tetrahydrofuran]
Conditions | mass density, [1] [kg/m3] | refractive index, [2] | speed of sound, [1] [m/s]
293.15 K | 888.766 | 1.40696 | 1305
298.15 K | 883.297 | 1.4042 | 1280.8
303.15 K | 877.809 | 1.40157 | 1256.8
308.15 K | 872.279 | 1.39885 | 1232.9
313.15 K | 866.713 | 1.39623 | 1209.2
318.15 K | 861.106 | 1.39349 | 1185.7
323.15 K | 855.456 | 1.39083 | 1162.3

C1CCOC1 [tetrahydrofuran] + CCCCCCCC[n+]1ccn(C)c1.F[P-](F)(F)(F)(F)F
Conditions | mass density, [4] [kg/m3] | refractive index, [3] | speed of sound, [4] [m/s]
293.15 K | 888.766 | 1.40696 | 1305
298.15 K | 883.297 | 1.4042 | 1280.8
303.15 K | 877.809 | 1.40157 | 1256.8
308.15 K | 872.279 | 1.39885 | 1232.9
313.15 K | 866.713 | 1.39623 | 1209.2
318.15 K | 861.106 | 1.39349 | 1185.7
323.15 K | 855.456 | 1.39083 | 1162.3

C1CCOC1 [tetrahydrofuran] + CCCCCCn1cc[n+](C)c1.F[P-](F)(F)(F)(F)F
Conditions | mass density, [4] [kg/m3] | refractive index, [3] | speed of sound, [4] [m/s]
293.15 K | 888.766 | 1.40696 | 1305
298.15 K | 883.297 | 1.4042 | 1280.8
303.15 K | 877.809 | 1.40157 | 1256.8
308.15 K | 872.279 | 1.39885 | 1232.9
313.15 K | 866.713 | 1.39623 | 1209.2
318.15 K | 861.106 | 1.39349 | 1185.7
323.15 K | 855.456 | 1.39083 | 1162.3

C1CCOC1 [tetrahydrofuran] + CCCCn1cc[n+](C)c1.F[P-](F)(F)(F)(F)F
Conditions | mass density, [4] [kg/m3] | refractive index, [3] | speed of sound, [4] [m/s]
293.15 K | 888.766 | 1.40696 | 1305
298.15 K | 883.297 | 1.4042 | 1280.8
303.15 K | 877.809 | 1.40157 | 1256.8
308.15 K | 872.279 | 1.39885 | 1232.9
313.15 K | 866.713 | 1.39623 | 1209.2
318.15 K | 861.106 | 1.39349 | 1185.7
323.15 K | 855.456 | 1.39083 | 1162.3
